This note sets out measurements from patent publication EP2386565A2, “Compounds and methods to inhibit or augment an inflammatory response” (Cambridge Enterprise Ltd., priority 1999, dated 2000).

The structures appear in SMILES notation. Positions of bridges follow the written chain, without caps; N, C: chain ends. Non-standard residues stand in square brackets, D forms with d. Residues, ends and D or L forms follow the SMILES beside them.

What all share (type): cell-based
The test system of experiment [1] is MCP-1 induced calcium flux. The experiment is described as follows: Intracellular calcium flux, MCP-1 as agonist. For orientation: Calcium flux is commonly read through the fluorescence of an indicator in the cells.
For experiment [2], the system named is IL8 induced human monocyte migration. Kind of experiment: Migration of freshly prepared peripheral blood monocytes, IL8. The protocol:
(§1) Agents may also be screened in a chemotactic assay which employs human neutrophils, eosinophils, mast cells, basophils, platelets, lymphocytes or monocytes. For monocytes, 9 mls of fresh blood are transferred to a tube containing 1 ml of 3.8% sodium citrate, and left at room temperature for 15 minutes. Five mls of this anti-coagulated blood are carefully layered over 3.5 ml Polymorphprep® (Nycomed Pharma, Oslo), and centrifuged at 500 g for 35 minutes per the manufacturer's instructions. The top band at the sample/medium interface contains monocytes. The monocytes are carefully removed with a glass pipette, and reconstituted to the original volume (5 ml). The cells are washed with PBS plus 10% fetal calf serum, and centrifuged at 400 g for 10 minutes. The washing step is repeated three times before the cells are counted. Cells are resuspended at 1 × 10^7 cells/ml in RPMI-1640 + 10% fetal calf serum (FCS). The monocytes are cultured for two days at 37°C in a humidified atmosphere of 5% CO2-
(§2) On day 2, the cells are counted, spun down, and reconstituted to 1 × 10^7 cells/ml in Gey's balanced salt solution + 1 mg/ml bovine serum albumin (BSA). […]

Experiment [3] concerns SDF-1α induced human monocyte migration. Kind of experiment: Migration of freshly prepared peripheral blood monocytes, SDF-1α. The procedure: as §1, §2

For the molecule `CC[C@@H](C)[C@H]1NC(=O)[C@@H](CCC(N)=O)NC(=O)[C@H](N)CSSC[C@H](C(N)=O)NC(=O)[C@@H](CC(C)C)NC(=O)[C@@H](CC(=O)O)NC(=O)[C@H]2CCCN2C(=O)[C@@H](CCCCN)NC(=O)[C@@H](CCC(N)=O)NC(=O)[C@@H](CCCCN)NC(=O)[C@@H](Cc2c[nH]c3ccccc23)NC1=O` (H-[dC][dQ][dI][dW][dK][dQ][dK][dP][dD][dL][dC]-NH2; disulfide 1-11), the “MCP-1 induced calcium flux (in words)” value in experiment [1] is recorded as “did not block”.

Turning to `CC[C@H](C)[C@H](NC(=O)[C@H](C)NC(=O)[C@H](CC(=O)O)NC(=O)[C@@H]1CCCN1C(=O)[C@H](CCC(N)=O)NC(=O)[C@H](C)N)C(=O)N[C@@H](CC(N)=O)C(=O)N[C@@H](C)C(=O)N1CCC[C@H]1C(=O)N[C@H](C(=O)N[C@H](C(=O)N[C@@H](CS)C(=O)N[C@@H](CS)C(=O)O)[C@@H](C)O)C(C)C` [Peptide 1] (H-AQPDAINAPVTCC-OH; N-terminus and C-terminus assumed), the “% inhibition at 100 µM versus IL8” value in experiment [2] is listed as “n.s”. The “% inhibition at 100 µM versus SDF-1α” value in experiment [3] is “n.s”.
